Experimental data: patent US11505548B2, “Heterocyclic compounds and their use for treatment of helminthic infections and diseases” (Celgene Corporation, priority 2019, dated 2022)

Key:
[1] = tested on: L. sigmodontis microfilariae; assay: Parasite motility assay, L. sigmodontis microfilariae; type: cell-based, Litomosoides sigmodontis; details: in vitro motility, active at compound concentrations below 1 μM
[2] = tested on: L. sigmodontis adult worms; assay: Parasite motility assay, adult L. sigmodontis; type: cell-based, Litomosoides sigmodontis; details: in vitro motility, active at compound concentrations below 1 μM
B. pahangi adult worms = assay: Parasite motility assay, adult B. pahangi; type: cell-based, Brugia pahangi; details: in vitro motility, active at compound concentrations below 1 μM
Procedure: Parasite Motility Assays. Adult and microfilariae B. malayi and B. pahangi parasites, harvested from infected jirds, were procured from the NIAID/NIH Filariasis Research Reagent Resource Center (FR3). […] (Athens, Ga.). Adult worms were plated in 24-well plates with 2 mL of Advanced RPMI 1640 medium (Invitrogen) supplemented with 25 mM HEPES, 2 mM L-Glutamine (Invitrogen), 100 U/mL Penicillin (Invitrogen), 100 µg/mL Streptomycin (Invitrogen), […] Amphotericin B solution (Invitrogen), and 5% heat inactivated fetal bovine serum and placed in a 37° C. humidified incubator with 5% CO2. After 24 h, adult worms were selected based upon motility as described below. After scoring for motility, 4-6 highly motile worms were selected for each treatment group and were transferred to new plates. Microfilariae were centrifuged at 5000×g for 5 min, and re-suspended in 2 ml of media. Microfilarial density was determined using a hemocytometer and were plated in a 96-well plate at 80 microfilariae/well with 200 μL of complete media. Treatment groups received compounds (0.1% DMSO) at 1 μM and 100 nM with 0.1% DMSO as a vehicle control. Cultures were incubated at 37° C. in a humidified incubator with 5% CO2. […] The motility of the worms and microfilariae were evaluated every 24 h and analyzed by a one sided unpaired Student's t-test using Microsoft Excel. […]

[3] = tested on: Onchocerca gutturosa Adult Male Worms; assay: Onchocerciasis in vitro screening model, worm motility score; type: cell-based; details: in vitro; Onchocerca gutturosa adult male worms; class A/B/C; read-out: O. gutturosa activity level (IC50 or MED)

“2-(3-(5-isoprop- oxypyridin-2- yl)-1,2,4- thiadiazol-5- ylamino)-N,N- dimethyl-5- (trifluoromethyl) nicotinamide [Compound 250]” was tested, and the “L. sigmodontis activity against microfilaria (level D)” value [1] was “D (activity against microfilaria at compound concentrations below 1 μM (activity level D))”, the “L. sigmodontis activity against adult filaria (level E)” value [2] was “E (activity against adult filaria at compound concentrations below 1 μM (activity level E))” and the “B. pahangi activity against adult filaria (level E)” value (B. pahangi adult worms) was “E (activity against adult filaria at compound concentrations below 1 μM (activity level E))”. For the same compound, the IC50 [3] was 500 to 5000 nM.

CC(=O)Nc1ncc(C(F)(F)F)cc1N(C)c1nnc(-c2ccc(OC(C)C)cn2)o1 [Compound 319, N-(3-((5-(5-isopropoxypyridin-2-yl)-1,3,4-oxadiazol-2-yl)(methyl)amino)-5-(trifluoromethyl)pyridin-2-yl)acetamide] gave an IC50 [3] of 500 to 5000 nM.

In the case of CC(C)Oc1cnc(-c2nsc(Nc3ncccc3S(=O)(=O)N(C)C)n2)cc1C(F)(F)F [Compound 320, 2-(3-(5-isopropoxy-4-(trifluoromethyl)pyridin-2-yl)-1,2,4-thiadiazol-5-ylamino)-N,N-dimethyl-pyridine-3-sulfonamide], the IC50 [3] is reported as 500 to 5000 nM.

CC(C)Oc1ccc(-c2nsc(Nc3ncccc3S(=O)(=O)N(C)C)n2)nc1 [Compound 321, 2-(3-(5-isoprop-oxypyridin-2-yl)-1,2,4-thiadiazol-5-ylamino)-N,N-dimethyl-pyridine-3-sulfonamide] gave an IC50 [3] of 500 to 5000 nM.

CC(C)c1cnc(Nc2nc(-c3cc4c(cn3)N(C)CC4)ns2)cc1C(F)(F)F [Compound 322, N-(5-isopropyl-4-(trifluoromethyl)pyridin-2-yl)-3-(1-methyl-2,3-dihydro-1H-pyrrolo[2,3-c]pyridin-5-yl)-1,2,4-thiadiazol-5-amine] gave an IC50 [3] of less than 200 nM.

CC(C)c1cnc(Nc2nc(-c3cc4c(cn3)N(C)CC4)ns2)c(C(F)(F)F)c1 [Compound 323, N-(5-isopropyl-3-(trifluoromethyl)pyridin-2-yl)-3-(1-methyl-2,3-dihydro-1H-pyrrolo[2,3-c]pyridin-5-yl)-1,2,4-thiadiazol-5-amine] gave an IC50 [3] of less than 200 nM.

With Cc1cc(C(F)(F)F)cnc1Nc1nc(-c2cc3c(cn2)N(C)CC3)ns1 [Compound 324, 3-(1-methyl-2,3-dihydro-1H-pyrrolo[2,3-c]pyridin-5-yl)-N-(3-methyl-5-(trifluoromethyl)pyridin-2-yl)-1,2,4-thiadiazol-5-amine] the IC50 [3] was less than 200 nM.

For CC(=O)N(C)c1cc(C(F)(F)F)cnc1Nc1nc(-c2ccccn2)ns1 [Compound 325, N-methyl-N-(2-(3-(pyridin-2-yl)-1,2,4-thiadiazol-5-ylamino)-5-(trifluoromethyl)pyridin-3-yl)acetamide], the IC50 [3] was less than 200 nM.

With CC(=O)N(C)c1cccnc1Nc1nc(-c2ccc(OC3COC3)cn2)ns1 [Compound 326, N-methyl-N-(2-(3-(5-(oxetan-3-yloxy)pyridin-2-yl)-1,2,4-thiadiazol-5-ylamino)pyridin-3-yl)acetamide] the IC50 [3] was 500 to 5000 nM.

CC(C)OC(=O)c1cccnc1Nc1nc(-c2ccc(OC(C)C)cn2)ns1 [Compound 327, isopropyl 2-(3-(5-isopropoxypyridin-2-yl)-1,2,4-thiadiazol-5-ylamino)nicotinate] showed an IC50 [3] of 500 to 5000 nM.

CC(C)Oc1ccc(-c2nsc(Nc3ncc(C(F)(F)F)cc3C(=O)N3CCCC3)n2)nc1 [Compound 328, (2-(3-(5-isoprop-oxypyridin-2-yl)-1,2,4-thiadiazol-5-ylamino)-5-(trifluoromethyl)pyridin-3-yl)(pyrrolidin-l-yl)methanone] showed an IC50 [3] of 500 to 5000 nM.

CC(=O)N(C)c1cc(C(F)(F)F)cnc1Nc1nc(-c2ccc(OC3COC3)cn2)ns1 [Compound 329, N-methyl-N-(2-(3-(5-(oxetan-3-yloxy)pyridin-2-yl)-1,2,4-thiadiazol-5-ylamino)-5-(trifluoromethyl)pyridin-3-yl)acetamide] was tested, and the IC50 [3] was 500 to 5000 nM.

Compound CC(=O)N(C)c1cc(C(F)F)cnc1Nc1nc(-c2cc3c(cn2)N(C)CC3)ns1 [Compound 330, N-(5-(difluoro-methyl)-2-(3-(1-methyl-2,3-dihydro-1H-pyrrolo[2,3-c]pyridin-5-yl)-1,2,4-thiadiazol-5-ylamino)pyridin-3-yl)-N-methylacetamide] has an IC50 [3] of 500 to 5000 nM.
